Test: Analytical data of the compound obtained: water solubility
Assay type: physicochemical
Conditions: product of Example 1, white powder

For `CC(=O)OC(CC(=O)O)C[N+](C)(C)C.CC(=O)OC(CC(=O)O)C[N+](C)(C)C.O=C([O-])C(O)C(O)C(O)C(O)C(=O)[O-]` [Example 1, acetyl L-carnitine mucate (2:1)], the Water solubility was “Poorly soluble”.

— US6693215B2, “Process for the preparation of salts of L-carnitine and alkanoyl L-carnitine with mucic acid” (Sigma-Tau Industrie Farmaceutiche Riunite S.p.A., priority 2002, dated 2004)
